Test results taken from ChEMBL document CHEMBL4376810, “Bioactive Secondary Metabolites from Bacillus subtilis: A Comprehensive Review” (2019).
≈ marks a conversion by molar mass, not a printed value. One block for each compound: values may come before it. Non-standard residues stand in square brackets, D forms with d. Residues, ends and D or L forms follow the SMILES beside them. *: point of attachment. Tridecanoyl(3R-OH,11-Me) = CCC(C)CCCCCCC[C@@H](O)CC(=O)*; X1 = CCC(C)CC(C)CCCCC[C@@H](O)CC(=O)*

Assays:
[1] = tested on: Staphylococcus aureus; assay: Antibacterial activity against Staphylococcus aureus; assay type: functional
[2] = tested on: Staphylococcus aureus; assay: Antibacterial activity against methicillin-resistant Staphylococcus aureus incubated for 24 hrs by broth microdilution method; assay type: functional
[3] = tested on: Bacillus pumilus; assay: Antibacterial activity against Bacillus pumilus incubated for 24 hrs by broth microdilution method; assay type: functional
[4] = tested on: Micrococcus luteus; assay: Antibacterial activity against Micrococcus luteus incubated for 24 hrs by broth microdilution method; assay type: functional
[5] = tested on: Staphylococcus aureus; assay: Antibacterial activity against methicillin-resistant Staphylococcus aureus; assay type: functional
[6] = tested on: Staphylococcus aureus; assay: Antibacterial activity against oxacillin-resistant Staphylococcus aureus by broth microdilution method; assay type: functional
[7] = tested on: Staphylococcus epidermidis; assay: Antibacterial activity against Staphylococcus epidermidis by broth microdilution method; assay type: functional
[8] = tested on: Streptococcus pneumoniae; assay: Antibacterial activity against Streptococcus pneumoniae by broth microdilution method; assay type: functional
[9] = tested on: Morganella morganii; assay: Antibacterial activity against streptomycin-resistant Morganella morganii incubated for 18 hrs by agar dilution assay; assay type: functional
[10] = tested on: Staphylococcus aureus; assay: Antibacterial activity against methicillin-resistant Staphylococcus aureus incubated for 18 hrs by agar dilution assay; assay type: functional
[11] = tested on: Salmonella typhimurium; assay: Antibacterial activity against Salmonella typhimurium incubated for 18 hrs by agar dilution assay; assay type: functional, Salmonella enterica subsp. enterica serovar Typhimurium; conditions: Salmonella enterica
[12] = tested on: Colletotrichum acutatum; assay: Antifungal activity against Colletotrichum acutatum assessed as inhibition of fungal growth incubated for 48 hrs by standard broth dilution assay; assay type: functional
[13] = tested on: Rhizoctonia solani; assay: Antifungal activity against Rhizoctonia solani assessed as inhibition of fungal growth incubated for 48 hrs by standard broth dilution assay; assay type: functional
[14] = tested on: Botrytis cinerea; assay: Antifungal activity against Botrytis cinerea assessed as inhibition of fungal growth incubated for 48 hrs by standard broth dilution assay; assay type: functional

Compound: CC(C)C[C@H](NC(=O)[C@@H](O)[C@@H](O)[C@@H](N)CC(N)=O)[C@@H]1Cc2cccc(O)c2C(=O)O1
- MIC [1]: < 1 µg/mL

Compound: CC1=CC2C(OC3OC(C)C(O)C(O)C3O)CCCC2C2C(=O)OC(=O)/C(C)=C3/CC(O)C/C3=C/2C1/C=C/C=C/C=C(\C)CC(C)CC(O)C(C)C(=O)O (stereo not drawn)
- MIC [2]: < 7 µg/mL
- MIC [3]: < 7 µg/mL
- MIC [4]: < 7 µg/mL

Compound: CCCCCCCCCCCCC(=O)N[C@@H]1C(=O)N[C@H](CCC(N)=O)C(=O)N[C@@H](CC(=O)O)C(=O)NCC(=O)N[C@@H](CC(N)=O)C(=O)N[C@@H](CC(=O)O)C(=O)NCC(=O)N[C@@H](Cc2ccc(O)cc2)C(=O)N[C@@H](C(C)C)C(=O)OC1C (stereo partly drawn)
- MIC [5]: 20 µg/mL (≈ 17.4 µM)

Compound: CC(C)C[C@H](NC(=O)[C@H]1OCN[C@@H](CC(N)=O)[C@@H]1O)[C@@H]1Cc2cccc(O)c2C(=O)O1
- MIC [6]: 0.5 to 2 µg/mL (≈ 1.15 to 4.59 µM)
- MIC [7]: 0.5 to 2 µg/mL (≈ 1.15 to 4.59 µM)
- MIC [8]: 0.5 to 2 µg/mL (≈ 1.15 to 4.59 µM)

Compound: C=C/C=C(\C)CCC1CCC/C=C\C=C(\C)C(OP(=O)(O)O)CCC\C=C/C=C\C=C\C=C\C(O)C(C)C(=C)CC(=O)O1 (stereo not drawn)
- MIC [9]: 2 to 32 µg/mL (≈ 3.25 to 52.1 µM)
- MIC [10]: 2 to 32 µg/mL (≈ 3.25 to 52.1 µM)
- MIC [11]: 2 to 32 µg/mL (≈ 3.25 to 52.1 µM)

Compound: C=C/C=C(\C)CCC1CCC/C=C\C=C(\C)C(OP(=O)(O)O)CCC\C=C/C=C\C=C\C=C\CC(C)C(=C)CC(=O)O1 (stereo not drawn)
- MIC [9]: 2 to 32 µg/mL (≈ 3.34 to 53.4 µM)
- MIC [10]: 2 to 32 µg/mL (≈ 3.34 to 53.4 µM)
- MIC [11]: 2 to 32 µg/mL (≈ 3.34 to 53.4 µM)

Compound: CCCCCCCCCCCCCC(=O)N[C@@H]1C(=O)N[C@H](CCC(N)=O)C(=O)N[C@@H](CC(=O)O)C(=O)NCC(=O)N[C@@H](CC(N)=O)C(=O)N[C@@H](CC(=O)O)C(=O)NCC(=O)N[C@@H](Cc2ccc(O)cc2)C(=O)N[C@@H](C(C)C)C(=O)OC1C (stereo partly drawn)
- MIC [5]: 20 µg/mL (≈ 17.2 µM)

Compound: CC1=CC2C(OC3OC(C)C(O)C(=O)C3O)CCCC2C2C(=O)OC(=O)/C(C)=C3/CC(O)C/C3=C/2C1/C=C/C=C/C=C(\C)CC(C)CC(O)C(C)C(=O)O (stereo not drawn)
- MIC [2]: < 7 µg/mL
- MIC [3]: < 7 µg/mL
- MIC [4]: < 7 µg/mL

Compound: CCCCCCCCCCCC(=O)N[C@@H]1C(=O)N[C@H](CCC(N)=O)C(=O)N[C@@H](CC(=O)O)C(=O)NCC(=O)N[C@@H](CC(N)=O)C(=O)N[C@@H](CC(=O)O)C(=O)NCC(=O)N[C@@H](Cc2ccc(O)cc2)C(=O)N[C@@H](C(C)C)C(=O)OC1C (stereo partly drawn)
- MIC [5]: 20 µg/mL (≈ 17.7 µM)

Compound: CC1=CC2C(OC3OC(C)C(O)C(=O)C3O)CCCC2C2C(=O)OC(=O)/C=C3/CC(O)C/C3=C/2C1/C=C/C=C/C=C(\C)CC(C)CC(O)C(C)C(=O)O (stereo not drawn)
- MIC [2]: < 7 µg/mL
- MIC [3]: < 7 µg/mL
- MIC [4]: < 7 µg/mL

- MIC [12]: 4 to 8 µg/mL (≈ 3.79 to 7.59 µM)
- MIC [13]: 4 to 8 µg/mL (≈ 3.79 to 7.59 µM)
- MIC [14]: 4 to 8 µg/mL (≈ 3.79 to 7.59 µM)
Compound: CCC(C)CC(C)CCCCC[C@@H](O)CC(=O)N[C@@H](CCC(=O)O)C(=O)N[C@@H](CC(C)C)C(=O)N[C@@H](CC(C)C)C(=O)N[C@@H](C(=O)N[C@@H](CC(=O)O)C(=O)N[C@@H](CC(C)C)C(=O)N[C@@H](CC(C)C)C(=O)O)C(C)C (stereo partly drawn) (X1-ELL[dV]DLL-OH)

- MIC [12]: 4 to 8 µg/mL (≈ 3.84 to 7.69 µM)
- MIC [13]: 4 to 8 µg/mL (≈ 3.84 to 7.69 µM)
- MIC [14]: 4 to 8 µg/mL (≈ 3.84 to 7.69 µM)
Compound: CCC(C)CCCCCCC[C@@H](O)CC(=O)N[C@@H](CCC(=O)O)C(=O)N[C@@H](CC(C)C)C(=O)N[C@@H](CC(C)C)C(=O)N[C@@H](C(=O)N[C@@H](CC(=O)O)C(=O)N[C@@H](CC(C)C)C(=O)N[C@@H](CC(C)C)C(=O)O)C(C)C (stereo partly drawn) ({Tridecanoyl(3R-OH,11-Me)}-ELL[dV]DLL-OH)
